{
  "source": "patent US20110294843A1",
  "about": "“ADMINISTRATION SCHEME OF POLAR OPIOID METABOLITES FOR POST-OPERATIVE PAIN MANAGEMENT” (PAION UK Limited, priority 2008, published 2011)",
  "key": {"[1]": {"test_system": "patients following major abdominal surgery", "assay": "M6G022 study: analgesic efficacy and tolerability of M6G and morphine following major abdominal surgery", "protocol": "Pain relief, nausea and emesis were recorded for 24 to 48 hours after start of the patient controlled analgesia.\nThe study site personnel (with the exception of the pharmacy); representatives of the sponsoring company; and the organisation involved in monitoring, data management, or other aspects of the study were blinded to the study treatment. The use of midazolam, temazepam, zopiclone or other short-acting pre-operative anxiolytics was allowed. All patients received a standardised general anaesthetic consisting of propofol induction, with either isoflurane or sevoflurane maintenance. These inhalational agents are associated with a similar risk of PONV. Nitrous oxide was not allowed because of its emetic effects, and the risk of an imbalance in its use. An initial bolus of 1-3 μg/kg of fentanyl or 0.1-0.3 μg/kg of sufentanyl followed by further doses as required, was used for pre- and peri-operative analgesia. Post-operative analgesia was provided by the study drug.\nThe investigator could administer up to 5 ml of PCA study drug, on no more than two occasions in each 24 hour post-operative period, as rescue medication if the patient was in uncontrolled pain. […] The patients stayed on PCA for a minimum of 24 hours following surgery, but could continue up to 48 hours if clinically indicated.\nNo prophylactic antiemetic was given, although iv ondansetron (4 mg/2 ml) was available if the patient experienced severe nausea, or immediately following emesis. If this was ineffective further doses of ondansetron; or other agents such as cyclizine, prochlorperazine or perphenazine; were allowed.\nPain intensity at rest was assessed by the patients using the VRS-11 scale at baseline, 15, 30 and 45 minutes and 1, 2, 4, 6, 9, 12, 15, 18, 21 and 24 hours after the start of PCA. A numerical scale was chosen because of the practical difficulty for post-operative patients of completing a visual analogue scale. If the patient remained on PCA after 24 hours, the pain scores were recorded every 8 hours up to 48 hours. In addition, at the end of the study the patients and observers were asked to assess the acceptability of their pain relief over the entire study using a 5 point rating global scale ranging from very poor (1) to excellent (5). […] The total consumption of study drugs was calculated.\nEmesis risk factors of female gender; history of motion sickness or PONV; or smoking status were recorded at screening. Post-operative nausea was assessed by the patient using a 4 point ordinal scale (none, mild, moderate, severe) and occurrence of vomiting or dry retching recorded (yes/no; and if yes, the number of episodes) pre-operatively (Day −1), at baseline, and at 1, 2, 4, 6, 9, 12, 15, 18, 21, 24, 32, 40 and 48 hours after administration of the test analgesic. Nausea and vomiting were also combined in a single scoring system (postoperative nausea & vomiting, PONV), with an episode of vomiting or dry retching being scored as a 3 (severe) on the nausea scale.\nSedation was assessed using a combination of a binary question (sleepy, yes or no) and a 3 point ordinal scale (mild, moderate, severe) if the patient was sedated. All adverse events were recorded, along with concomitant medication use, with particular attention being paid to the use of anti-emetics.\nThe Intention to Treat (ITT) set of patients comprised all those who had been exposed to study medication at least once. This analysis set was the basis for the main efficacy and all safety and demographic analyses. Data were double entered using interactive verification into a CLINTRIAL database (Version 3.3.3, Phase Forward, Waltham, Mass., USA), and analysed using SAS (version 8.2, SAS Institute Inc., Cary, N.C., USA)."}, "[2]": {"test_system": "patients with pain treatment after surgery", "assay": "Meta analysis of four clinical studies with M6G pain treatment after surgery", "text": "The four studies M6G001, M6G012, M6G015 and M6G022 are described in the following.\nThe following variables were included in the meta analysis:\nNausea (none, mild, moderate, severe)\nSedation (none, mild, moderate, severe)\nPain (none, mild, moderate, severe)"}},
  "data": [
    {"smiles": "CN1CC[C@]23c4c5ccc(O)c4O[C@H]2[C@@H](O)C=C[C@H]3[C@H]1C5", "note": "[Morphine, morphine]", "values": [
      {"measurement": "mean totals of PCA demands", "setting": "[1]; 4-48 h", "result": 93.9},
      {"measurement": "patients with sedation score recorded as severe", "setting": "[1]; baseline", "result": 28.5, "unit": "%"},
      {"measurement": "patients sedated", "setting": "[1]; baseline (when given control of the PCA button)", "result": 88.0, "unit": "%"},
      {"measurement": "mean totals of PCA demands", "setting": "[1]; early post-operative period (up to 4 hours)", "result": 28.8},
      {"measurement": "dose required to achieve comfort initially", "setting": "[1]; loading and recovery doses before PCA", "result": 14.4, "unit": "mg/70 kg"},
      {"measurement": "pain-free time", "setting": "[2]; during first 24 hours", "result": "9.0 to 10.9", "unit": "h"},
      {"measurement": "patients with moderate to severe sedation", "setting": "[2]; human, in vivo, intravenous", "result": 81.4, "unit": "%"},
      {"measurement": "patients with moderate to severe pain", "setting": "[2]; time window 0 to 6 hours", "result": 54.2, "unit": "%"},
      {"measurement": "patients with moderate to severe pain", "setting": "[2]; time window 6-24 hours", "result": 34.0, "unit": "%"},
      {"measurement": "patients with moderate to severe nausea", "setting": "[2]; worst assessment", "result": 32.8, "unit": "%"},
      {"measurement": "patients with vomiting", "setting": "[2]; worst assessment", "result": 36.5, "unit": "%"}
    ]}
  ]
}
